The source of these data is patent US9040663B2, “Melanocortin receptor-specific peptides” (AstraZeneca AB, priority 2009, dated 2015).

Molecules are shown by their SMILES. pEC50, pKi: −log10 of the molar value. Read-outs that look alike come from different tables or passages of the source.

The target in experiment [1] is T1, hMC4-R (Homo sapiens (Human), UniProt P32245). Nature of the experiment: Competitive inhibition binding assay using [I125]-NDP-α-MSH, hMC4-R. As to conditions: membranes of HEK-293 cells expressing recombinant hMC4-R, read-out: MC4-R Ki. How it is done: 7.1 Competitive Inhibition Assay using [I^125]-NDP-α-MSH.
A competitive inhibition binding assay was performed for exemplified peptides according to the invention using membrane homogenates prepared from HEK-293 cells that express recombinant hMC4-R, hMC3-R, or hMC5-R, and from B-16 mouse melanoma cells (containing endogenous MC1-R). In some instances, HEK-293 cells that express recombinant hMC1-R were employed. Assays were performed in 96 well GF/B Millipore multiscreen filtration plates (MAFB NOB10) pre-coated with 0.5% bovine serum albumin (Fraction V). Membrane homogenates were incubated with 0.2 nM (for hMC4-R) 0.4 nM (for MC3-R and MC5-R) or 0.1 nM (for mouse B16 MC1-R or hMC1-R) [I^125]-NDP-α-MSH (Perkin Elmer) and increasing concentrations of test peptides of the present invention in buffer containing 25 mM HEPES buffer (pH 7.5) with 100 mM NaCl, 2 mM CaCl2, 2 mM MgCl2, 0.3 mM 1,10-phenanthroline, and 0.2% bovine serum albumin. After incubation for 60 minutes at 37° C., the assay mixture was filtered and the membranes washed three times with ice-cold buffer. Filters were dried and counted in a gamma counter for bound radioactivity. […] Maximal specific binding (100%) was defined as the difference in radioactivity (cpm) bound to cell membranes in the absence and presence of 1 μM NDP-α-MSH. […] Each assay was conducted in triplicate and the actual mean values are described, with results less than 0% reported as 0%. Ki values for test peptides of the present invention were determined using Graph-Pad Prism® curve-fitting software.

Experiment [2] concerns the target T1, hMC4-R. Nature of the experiment: High and low density hMC4-R functional assay (cAMP, HEK293-T-REx-MC4-R cells). Type of experiment: cell-based. As to conditions: for Emax: NDP-α-MSH = 100%, read-out: Intrinsic Activity (%). How it is done:
The cells were then dispensed into 96-well plates (BD 353916) in 198 μL (about 5×10^4) cells/well and incubated for 10 minutes at 37° C. The compound to be tested was diluted with DMSO to a final concentration of 1 mM. […] 120 μL of the 1 mM compound stock was pipetted in the second column on the plate. […] All assay samples were run in duplicate (i.e. each sample was in two low dox and two high dox plates, respectively). The plates were gently shaken and incubated for 15 minutes at 37° C.

[3] abbreviates: 0.1 ng/mL Doxycycline (low density hMC4-R system).
Setting [4] is: 10 ng/mL Doxycycline (high density hMC4-R system).

T1 sequence (P32245 whole entry): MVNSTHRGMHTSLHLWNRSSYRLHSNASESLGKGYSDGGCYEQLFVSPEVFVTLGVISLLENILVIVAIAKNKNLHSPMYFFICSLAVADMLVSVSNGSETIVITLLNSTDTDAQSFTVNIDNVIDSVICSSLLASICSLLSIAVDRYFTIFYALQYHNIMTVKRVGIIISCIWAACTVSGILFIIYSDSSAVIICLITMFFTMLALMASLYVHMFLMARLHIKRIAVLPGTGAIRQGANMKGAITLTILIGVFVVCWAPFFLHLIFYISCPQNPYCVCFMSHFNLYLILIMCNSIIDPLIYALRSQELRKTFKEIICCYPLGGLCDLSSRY

The term pKi denotes the Ki on a negative log10 scale, so that one unit is a factor of ten. A word on the pEC50: it is the EC50 on a negative log10 scale, so that one unit is a factor of ten. `CC(=O)N[C@@H](CCCNC(=N)N)C(=O)N[C@H]1CCC(=O)NCCC[C@@H](C(N)=O)NC(=O)[C@H](Cc2c[nH]c3ccccc23)NC(=O)[C@H](CCCNC(=N)N)NC(=O)[C@@H](Cc2ccc(C)cc2)NC(=O)[C@H](CCN)NC1=O` [Example 15, Ac-Arg-cyclo(Glu-Dab-D-Phe(4-Me)-Arg-Trp-Orn)-NH2]: in experiment [1], the pKi is 9.84. Further, in experiment [2] (setting [3]), the negative-log EC50 (pEC50) is 9.78 and the Emax was 16%. Also, in experiment [2] (setting [4]), the pEC50 is 9.70 and the Emax was determined as 90%.
On the same counts, the results for `CC(=O)N[C@@H](CCCNC(=N)N)C(=O)N[C@H]1CCC(=O)NCCC[C@@H](C(N)=O)NC(=O)[C@H](Cc2c[nH]c3ccccc23)NC(=O)[C@H](CCCNC(=N)N)NC(=O)[C@@H](Cc2cc(F)cc(F)c2)NC(=O)[C@H](CCN)NC1=O` [Example 17, Ac-Arg-cyclo(Glu-Dab-D-Phe(3,5-diF)-Arg-Trp-Orn)-NH2] are 8.70, 9.02, 64%, 9.92 and 95%.
For `CC(=O)N[C@@H](CCCNC(=N)N)C(=O)N[C@H]1CCC(=O)NCCC[C@@H](C(N)=O)NC(=O)[C@H](Cc2c[nH]c3ccccc23)NC(=O)[C@H](CCCNC(=N)N)NC(=O)[C@@H](Cc2ccccc2C)NC(=O)[C@H](CCN)NC1=O` [Example 18, Ac-Arg-cyclo(Glu-Dab-D-Phe(2-Me)-Arg-Trp-Orn)-NH2] the same measures were 9.30, 9.85, 83%, 10.07 and 97%.
For `CC(=O)N[C@@H](CCCNC(=N)N)C(=O)N[C@H]1CCC(=O)NCCC[C@@H](C(N)=O)NC(=O)[C@H](Cc2c[nH]c3ccccc23)NC(=O)[C@H](CCCNC(=N)N)NC(=O)[C@@H](Cc2cccc(C)c2)NC(=O)[C@H](CCN)NC1=O` [Example 19, Ac-Arg-cyclo(Glu-Dab-D-Phe(3-Me)-Arg-Trp-Orn)-NH2] the same measures were 9.40, 9.38, 35%, 9.66 and 97%.
On to `CC(=O)N[C@@H](CCCNC(=N)N)C(=O)N[C@H]1CCC(=O)NCCC[C@@H](C(N)=O)NC(=O)[C@H](Cc2c[nH]c3ccccc23)NC(=O)[C@H](CCCNC(=N)N)NC(=O)[C@@H](Cc2ccc(C(F)(F)F)cc2)NC(=O)[C@H](CCN)NC1=O` [Example 20, Ac-Arg-cyclo(Glu-Dab-D-Phe(4-CF3)-Arg-Trp-Orn)-NH2], for which the negative-log Ki (pKi) in experiment [1] was 10.22. In experiment [2] (setting [3]), the Emax was found to be 0.5%. Also, in experiment [2] (setting [4]), the negative-log EC50 (pEC50) was 9.12 and the Emax came out at 53%.
In the case of `CC(=O)N[C@@H](CCCNC(=N)N)C(=O)N[C@H]1CCC(=O)NCCC[C@@H](C(N)=O)NC(=O)[C@H](Cc2c[nH]c3ccccc23)NC(=O)[C@H](CCCNC(=N)N)NC(=O)[C@@H](Cc2ccc(C)cc2C)NC(=O)[C@H](CCN)NC1=O` [Example 21, Ac-Arg-cyclo(Glu-Dab-D-Phe(2,4-diMe)-Arg-Trp-Orn)-NH2], the pKi in experiment [1] is 10.07. Also, in experiment [2] (setting [3]), the Emax came to 8%. Also, in experiment [2] (setting [4]), the negative-log EC50 (pEC50) is 9.30 and the Emax was found to be 97%.
`CC(=O)N[C@@H](CCCNC(=N)N)C(=O)N[C@H]1CCC(=O)NCCC[C@@H](C(N)=O)NC(=O)[C@H](Cc2c[nH]c3ccccc23)NC(=O)[C@H](CCCNC(=N)N)NC(=O)[C@@H](Cc2ccccc2[N+](=O)[O-])NC(=O)[C@H](CCN)NC1=O` [Example 22, Ac-Arg-cyclo(Glu-Dab-D-Phe(2-NO2)-Arg-Trp-Orn)-NH2]: the negative logarithm of the Ki (pKi) in experiment [1] is 7.96. In experiment [2] (setting [3]), the pEC50 is 8.52 and the Emax was 78%. Moreover, in experiment [2] (setting [4]), the negative-log EC50 (pEC50) was 9.70 and the Emax worked out at 93%.
On the same counts, the results for `CC(=O)N[C@@H](CCCNC(=N)N)C(=O)N[C@H]1CCC(=O)NCCC[C@@H](C(N)=O)NC(=O)[C@H](Cc2c[nH]c3ccccc23)NC(=O)[C@H](CCCNC(=N)N)NC(=O)[C@@H](Cc2cccc([N+](=O)[O-])c2)NC(=O)[C@H](CCN)NC1=O` [Example 23, Ac-Arg-cyclo(Glu-Dab-D-Phe(3-NO2)-Arg-Trp-Orn)-NH2] are 9.15, 8.70, 17%, 9.26 and 95%.
On the same counts, the results for `CC(=O)N[C@@H](CCCNC(=N)N)C(=O)N[C@H]1CCC(=O)NCCC[C@@H](C(N)=O)NC(=O)[C@H](Cc2c[nH]c3ccccc23)NC(=O)[C@H](CCCNC(=N)N)NC(=O)[C@@H](Cc2ccc([N+](=O)[O-])cc2)NC(=O)[C@H](CCN)NC1=O` [Example 24, Ac-Arg-cyclo(Glu-Dab-D-Phe(4-NO2)-Arg-Trp-Orn)-NH2] are 9.35, 9.15, 15%, 9.35 and 99%.
`COc1ccc(C[C@H]2NC(=O)[C@H](CCN)NC(=O)[C@@H](NC(=O)[C@H](CCCNC(=N)N)NC(C)=O)CCC(=O)NCCC[C@@H](C(N)=O)NC(=O)[C@H](Cc3c[nH]c4ccccc34)NC(=O)[C@H](CCCNC(=N)N)NC2=O)cc1OC` [Example 25, Ac-Arg-cyclo(Glu-Dab-D-Phe(3,4-diOMe)-Arg-Trp-Orn)-NH2]: the negative-log Ki (pKi) in experiment [1] is 7.46. Also, in experiment [2] (setting [3]), the negative-log EC50 (pEC50) was 7.12 and the Emax turned out to be 23%. In experiment [2] (setting [4]), the pEC50 was 8.70 and the Emax was determined as 94%.
On the same counts, the results for `CC(=O)N[C@@H](CCCNC(=N)N)C(=O)N[C@H]1CCC(=O)NCCC[C@@H](C(N)=O)NC(=O)[C@H](Cc2c[nH]c3ccccc23)NC(=O)[C@H](CCCNC(=N)N)NC(=O)[C@@H](Cc2ccc(F)c(F)c2)NC(=O)[C@H](CCN)NC1=O` [Example 26, Ac-Arg-cyclo(Glu-Dab-D-Phe(3,4-diF)-Arg-Trp-Orn)-NH2] are 9.52, 9.90, 74%, 9.92 and 90%.
On the same counts, the results for `CC(=O)N[C@@H](CCCNC(=N)N)C(=O)N[C@H]1CCC(=O)NCCC[C@@H](C(N)=O)NC(=O)[C@H](Cc2c[nH]c3ccccc23)NC(=O)[C@H](CCCNC(=N)N)NC(=O)[C@@H](Cc2cc(F)c(F)c(F)c2)NC(=O)[C@H](CCN)NC1=O` [Example 27, Ac-Arg-cyclo(Glu-Dab-D-Phe(3,4,5-triF)-Arg-Trp-Orn)-NH2] are 9.18, 9.15, 37%, 9.48 and 97%.
On the same counts, the results for `CC(=O)N[C@@H](CCCNC(=N)N)C(=O)N[C@H]1CCC(=O)NCCC[C@@H](C(N)=O)NC(=O)[C@H](Cc2c[nH]c3ccccc23)NC(=O)[C@H](CCCNC(=N)N)NC(=O)[C@@H](Cc2ccc(N)cc2)NC(=O)[C@H](CCN)NC1=O` [Example 28, Ac-Arg-cyclo(Glu-Dab-D-Phe(4-NH2)-Arg-Trp-Orn)-NH2] are 7.32, 7.54, 35%, 9.22 and 94%.
With `CC(=O)N[C@@H](CCCNC(=N)N)C(=O)N[C@H]1CCC(=O)NCCC[C@@H](C(N)=O)NC(=O)[C@H](Cc2c[nH]c3ccccc23)NC(=O)[C@H](CCCNC(=N)N)NC(=O)[C@@H](Cc2ccc(-c3ccccc3)cc2)NC(=O)[C@H](CCN)NC1=O` [Example 29, Ac-Arg-cyclo(Glu-Dab-D-Phe(4-Ph)-Arg-Trp-Orn)-NH2], the pKi in experiment [1] is 9.30. In experiment [2] (setting [3]), the pEC50 is 8.52 and the Emax amounted to 14%. Further, in experiment [2] (setting [4]), the pEC50 is 9.10 and the Emax amounted to 100%.
Consider `CC(=O)N[C@@H](CCCNC(=N)N)C(=O)N[C@H]1CCC(=O)NCCC[C@@H](C(N)=O)NC(=O)[C@H](Cc2c[nH]c3ccccc23)NC(=O)[C@H](CCCNC(=N)N)NC(=O)[C@@H](Cc2ccc(C(C)(C)C)cc2)NC(=O)[C@H](CCN)NC1=O` [Example 30, Ac-Arg-cyclo(Glu-Dab-D-Phe(4-tBu)-Arg-Trp-Orn)-NH2], for which the pKi in experiment [1] is 8.40. The Emax in experiment [2] (setting [3]) was 2%. Also, in experiment [2] (setting [4]), the pEC50 was 7.60 and the Emax was determined as 9%.
For `CC(=O)N[C@@H](CCCNC(=N)N)C(=O)N[C@H]1CCC(=O)NCCC[C@@H](C(N)=O)NC(=O)[C@H](Cc2c[nH]c3ccccc23)NC(=O)[C@H](CCCNC(=N)N)NC(=O)[C@@H](Cc2cccc(Cl)c2)NC(=O)[C@H](CO)NC1=O` [Example 35, Ac-Arg-cyclo(Glu-Ser-D-Phe(3-Cl)-Arg-Trp-Orn)-NH2] the same measures were 8.00, 6%, 9.00 and 84%.
